Where two headings read alike, the source gives them in different places.
Molecular target: α-Glucosidase (E.C.3.2.1.20) enzyme (Saccharomyces cerevisiae) (Saccharomyces cerevisiae, UniProt P53341)
Experiment: biochemical
Type: biochemical
Protocol: α-Glucosidase (E.C.3.2.1.20) enzyme (Saccharomyces cerevisiae) inhibition activity was carried out by using previously described method. The enzyme (0.2 μ/mL) solution in phosphate buffered saline (PBS) (0.1 M, pH 6.8) with different concentrations of tested compounds (1, 0.5, 0.25, 0.125, 0.0625 and 0.0312 mM) at 37 °C were incubated for 15 min. After incubation, 0.7 mM p-nitrophenyl-α-D-glucopyranoside (a chromogenic substrate) was added and the change in absorbance was recorded at 400 nm for 30 min by microplate spectrophotometer (xMark™, BIO-RAD, California, LA, United States) per production of p-nitrophenyl. Al the isolated compounds were dissolve in DMSO (7.5% final) along with control. […] The IC50 values were calculated by using different concentrations of tested compounds. The results were processed by MS-Excel and Ez-fit software programs. The % inhibition was calculated by using the following formula:% Inhibition = 100 −(OD test well/OD control) × 100.

[1] = α-Glucosidase inhibitory activity IC50, tested up to 1.0 mM, PBS pH 6.8, 37 °C, NA = not active
[2] = IC50 (Table 2, repeated beside docking results), S. cerevisiae α-glucosidase
[3] = S. cerevisiae α-glucosidase, read-out: IC50 (Table 2, repeated beside docking results)
[4] = tested up to 1.0 mM, PBS pH 6.8, 37 °C, NA = not active, read-out: α-Glucosidase inhibitory activity IC50

α-Glucosidase (E.C.3.2.1.20) enzyme (Saccharomyces cerevisiae), sequence (P53341 whole entry): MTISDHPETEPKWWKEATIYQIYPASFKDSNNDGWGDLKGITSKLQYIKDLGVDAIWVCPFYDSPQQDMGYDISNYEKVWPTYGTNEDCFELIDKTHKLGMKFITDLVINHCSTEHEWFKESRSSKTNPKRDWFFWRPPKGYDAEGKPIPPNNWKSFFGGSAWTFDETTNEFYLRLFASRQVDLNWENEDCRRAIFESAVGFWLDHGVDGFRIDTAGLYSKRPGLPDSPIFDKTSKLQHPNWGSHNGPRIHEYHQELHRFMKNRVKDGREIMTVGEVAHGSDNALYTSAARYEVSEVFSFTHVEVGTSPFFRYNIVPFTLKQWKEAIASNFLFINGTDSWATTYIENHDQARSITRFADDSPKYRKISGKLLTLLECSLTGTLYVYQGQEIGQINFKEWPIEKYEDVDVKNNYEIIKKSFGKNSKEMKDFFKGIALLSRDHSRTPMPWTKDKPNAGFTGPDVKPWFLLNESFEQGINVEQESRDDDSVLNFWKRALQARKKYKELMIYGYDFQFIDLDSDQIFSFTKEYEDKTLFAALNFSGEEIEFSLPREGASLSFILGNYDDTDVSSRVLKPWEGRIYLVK

Row | IC50 [4] | Compound | IC50 [1] | other results
1 |  | CCOC(=O)c1ccc(C(=O)OCC)c(Br)c1 [Compound 2, Diethyl 2-bromobenzene 1,4-dioate] | ~234 µM | IC50: 234 µM
2 |  | C/C=C(\CC[C@@H](C)[C@H]1CC[C@H]2[C@@H]3CC=C4C[C@@H](O)CC[C@]4(C)[C@H]3CC[C@]12C)C(C)C [Compound 3, Fucosterol] | 289 ± 4.91 µM | IC50 [2]: 289 µM
3 |  | CCCCCCCCCCCCCCCC(=O)OC [Compound 4, n-Hexadecanoic acid, methyl ester] |  | α-glucosidase inhibition in words (in vitro): inactive
4 | 659.8 ± 2.15 µM | CCCCCCCCCCCCCCCCCCCCCCCCCC(=O)O [Compound 6, Cerotic acid] |  | IC50 [3]: 660 µM
5 | 30.5 ± 0.41 µM | CCCCCCCCCCCCCCCCCCC=CCCCCCCCC(=O)O [Compound 7, n-Octacos-9-enoic acid] |  | 
6 |  | CCCCCCCCC=CCCCCCCCCCC(=O)O [Compound 8, 11-Eicosenoic acid] | 480 µM | IC50 [2]: 480 µM

Row | Compound | IC50 [4] | IC50 [1] | other results
7 | Ethyl methyl 2-bromobenzene 1,4-dioate [Compound 1] | 522 ± 0.51 µM |  | IC50 [3]: 522 µM

— paper PMC6949951, “α-Glucosidase Inhibition and Molecular Docking Studies of Natural Brominated Metabolites from Marine Macro Brown Alga Dictyopteris hoytii” (Marine Drugs, 2019)
